Reference: ChEMBL document CHEMBL1144680, “Structure-guided design of aminopyrimidine amides as potent, selective inhibitors of lymphocyte specific kinase: synthesis, structure-activity relationships, and inhibition of in vivo T cell activation” (J Med Chem, 2008)

Legend:
Blood [1] = test: Inhibition of anti-CD3-induced IL2 production in human whole blood by ELISA; type: functional, tissue-based
Blood [2] = test: Inhibition of LPS-induced TNFalpha production in human whole blood by ELISA; type: functional, tissue-based
[3] = Protein binding in mouse plasma; type: ADME, cell-free; conditions: read-out: PB (converted)
[4] = Protein binding in rat plasma; type: ADME, cell-free; conditions: read-out: PB (converted)
[5] = Clearance in Sprague-Dawley rat at 0.5 mg/kg, iv; type: ADME, organism-based; parameters: dose 0.5 mg/kg, route intravenous; conditions: in vivo
[6] = Volume of distribution at steady state in Sprague-Dawley rat at 0.5 mg/kg, iv; type: ADME, organism-based; parameters: dose 0.5 mg/kg, route intravenous; conditions: in vivo, read-out: Vdss
[7] = Half life in Sprague-Dawley rat at 0.5 mg/kg, iv; type: ADME, organism-based; parameters: dose 0.5 mg/kg, route intravenous; conditions: in vivo
[8] = AUC (0 to infinity) in Sprague-Dawley rat at 2 mg/kg, po; type: ADME, organism-based; parameters: time infinity, dose 2 mg/kg, route oral; conditions: plasma
[9] = Cmax in Sprague-Dawley rat at 2 mg/kg, po; type: ADME, organism-based; parameters: dose 2 mg/kg, route oral; conditions: in vivo
[10] = Tmax in Sprague-Dawley rat at 2 mg/kg; type: ADME, organism-based; parameters: dose 2 mg/kg; conditions: in vivo
[11] = Oral bioavailability in Sprague-Dawley rat at 2 mg/kg; type: ADME, organism-based; conditions: in vivo
Angiopoietin-1 receptor = Angiopoietin-1 receptor (Homo sapiens, UniProt Q02763); test: Inhibition of Tie2 by HTRF assay
[12] = molecular target: Vascular endothelial growth factor receptor 2 (Homo sapiens, UniProt P35968); test: Inhibition of KDR by HTRF assay
[13] = molecular target: Mitogen-activated protein kinase 14 (Homo sapiens, UniProt Q16539); test: Inhibition of p38alpha by HTRF assay
[14] = molecular target: T1, Tyrosine-protein kinase JAK3 (Homo sapiens, UniProt P52333); test: Inhibition of Jak3 by HTRF assay
T1 sequence (P52333 whole entry): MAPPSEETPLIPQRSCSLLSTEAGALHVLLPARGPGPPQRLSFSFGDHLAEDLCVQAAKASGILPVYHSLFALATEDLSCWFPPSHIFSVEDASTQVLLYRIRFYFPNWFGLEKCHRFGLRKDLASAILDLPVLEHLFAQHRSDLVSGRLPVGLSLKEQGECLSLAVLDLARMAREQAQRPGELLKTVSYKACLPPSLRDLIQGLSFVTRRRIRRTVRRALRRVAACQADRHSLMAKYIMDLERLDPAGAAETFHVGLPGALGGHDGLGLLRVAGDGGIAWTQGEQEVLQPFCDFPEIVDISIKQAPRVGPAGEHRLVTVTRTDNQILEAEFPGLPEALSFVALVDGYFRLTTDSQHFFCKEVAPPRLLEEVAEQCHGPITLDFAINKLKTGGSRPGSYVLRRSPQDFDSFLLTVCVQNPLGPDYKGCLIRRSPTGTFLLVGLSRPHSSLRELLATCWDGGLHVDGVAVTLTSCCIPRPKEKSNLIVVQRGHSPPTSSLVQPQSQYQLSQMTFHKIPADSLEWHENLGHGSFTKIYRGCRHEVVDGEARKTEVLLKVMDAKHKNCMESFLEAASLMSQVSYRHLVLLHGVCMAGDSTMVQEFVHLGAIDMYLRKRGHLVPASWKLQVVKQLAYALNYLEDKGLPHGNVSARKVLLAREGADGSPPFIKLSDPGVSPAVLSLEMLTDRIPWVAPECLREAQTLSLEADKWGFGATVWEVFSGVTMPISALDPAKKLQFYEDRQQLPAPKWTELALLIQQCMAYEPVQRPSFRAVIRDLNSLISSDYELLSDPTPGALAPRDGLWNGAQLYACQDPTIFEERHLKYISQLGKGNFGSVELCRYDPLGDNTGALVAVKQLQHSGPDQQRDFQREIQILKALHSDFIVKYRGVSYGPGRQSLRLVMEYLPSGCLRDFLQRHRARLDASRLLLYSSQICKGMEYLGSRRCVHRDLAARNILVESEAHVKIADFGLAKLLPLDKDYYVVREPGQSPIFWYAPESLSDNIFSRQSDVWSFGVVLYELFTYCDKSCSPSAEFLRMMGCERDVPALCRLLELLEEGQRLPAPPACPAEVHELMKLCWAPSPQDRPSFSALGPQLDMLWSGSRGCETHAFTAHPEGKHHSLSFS

Lymphocyte = test: Inhibition of T cell activation in human peripheral blood lymphocytes by mixed lymphocyte reaction; type: functional, cell-based
[15] = molecular target: Tyrosine-protein kinase Lck (Homo sapiens, UniProt P06239)
Description: Inhibition of Lck by HTRF assay

Mus musculus = species on record: Mus musculus; test: Inhibition of anti-CD3-induced IL2 production in BALB/c mouse; type: functional

Mitogen-activated protein kinase 14, sequence (Q16539 whole entry): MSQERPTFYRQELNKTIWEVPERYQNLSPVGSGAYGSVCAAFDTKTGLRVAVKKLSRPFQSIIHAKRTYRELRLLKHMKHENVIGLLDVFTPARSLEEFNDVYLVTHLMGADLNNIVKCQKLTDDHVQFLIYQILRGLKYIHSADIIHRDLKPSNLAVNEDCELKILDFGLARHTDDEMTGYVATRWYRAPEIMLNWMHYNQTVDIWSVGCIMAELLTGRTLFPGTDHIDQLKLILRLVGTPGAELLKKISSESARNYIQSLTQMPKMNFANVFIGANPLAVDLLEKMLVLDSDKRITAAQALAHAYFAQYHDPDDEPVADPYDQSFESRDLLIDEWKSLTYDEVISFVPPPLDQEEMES
Tyrosine-protein kinase Lck, sequence (P06239 whole entry): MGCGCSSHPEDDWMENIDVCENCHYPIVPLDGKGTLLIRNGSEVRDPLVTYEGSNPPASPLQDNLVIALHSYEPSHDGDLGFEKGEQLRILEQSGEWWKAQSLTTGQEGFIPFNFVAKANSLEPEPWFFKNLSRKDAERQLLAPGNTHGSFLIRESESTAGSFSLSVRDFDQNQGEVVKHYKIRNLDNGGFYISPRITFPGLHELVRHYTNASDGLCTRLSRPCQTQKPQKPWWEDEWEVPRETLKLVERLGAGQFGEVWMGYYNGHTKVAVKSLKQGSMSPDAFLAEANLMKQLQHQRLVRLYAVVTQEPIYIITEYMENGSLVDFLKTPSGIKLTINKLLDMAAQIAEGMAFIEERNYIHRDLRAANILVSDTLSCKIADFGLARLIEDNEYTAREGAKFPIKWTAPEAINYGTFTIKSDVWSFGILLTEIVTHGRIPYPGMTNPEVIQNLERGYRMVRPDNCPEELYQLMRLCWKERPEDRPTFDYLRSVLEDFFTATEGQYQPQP
Angiopoietin-1 receptor, sequence (Q02763 whole entry): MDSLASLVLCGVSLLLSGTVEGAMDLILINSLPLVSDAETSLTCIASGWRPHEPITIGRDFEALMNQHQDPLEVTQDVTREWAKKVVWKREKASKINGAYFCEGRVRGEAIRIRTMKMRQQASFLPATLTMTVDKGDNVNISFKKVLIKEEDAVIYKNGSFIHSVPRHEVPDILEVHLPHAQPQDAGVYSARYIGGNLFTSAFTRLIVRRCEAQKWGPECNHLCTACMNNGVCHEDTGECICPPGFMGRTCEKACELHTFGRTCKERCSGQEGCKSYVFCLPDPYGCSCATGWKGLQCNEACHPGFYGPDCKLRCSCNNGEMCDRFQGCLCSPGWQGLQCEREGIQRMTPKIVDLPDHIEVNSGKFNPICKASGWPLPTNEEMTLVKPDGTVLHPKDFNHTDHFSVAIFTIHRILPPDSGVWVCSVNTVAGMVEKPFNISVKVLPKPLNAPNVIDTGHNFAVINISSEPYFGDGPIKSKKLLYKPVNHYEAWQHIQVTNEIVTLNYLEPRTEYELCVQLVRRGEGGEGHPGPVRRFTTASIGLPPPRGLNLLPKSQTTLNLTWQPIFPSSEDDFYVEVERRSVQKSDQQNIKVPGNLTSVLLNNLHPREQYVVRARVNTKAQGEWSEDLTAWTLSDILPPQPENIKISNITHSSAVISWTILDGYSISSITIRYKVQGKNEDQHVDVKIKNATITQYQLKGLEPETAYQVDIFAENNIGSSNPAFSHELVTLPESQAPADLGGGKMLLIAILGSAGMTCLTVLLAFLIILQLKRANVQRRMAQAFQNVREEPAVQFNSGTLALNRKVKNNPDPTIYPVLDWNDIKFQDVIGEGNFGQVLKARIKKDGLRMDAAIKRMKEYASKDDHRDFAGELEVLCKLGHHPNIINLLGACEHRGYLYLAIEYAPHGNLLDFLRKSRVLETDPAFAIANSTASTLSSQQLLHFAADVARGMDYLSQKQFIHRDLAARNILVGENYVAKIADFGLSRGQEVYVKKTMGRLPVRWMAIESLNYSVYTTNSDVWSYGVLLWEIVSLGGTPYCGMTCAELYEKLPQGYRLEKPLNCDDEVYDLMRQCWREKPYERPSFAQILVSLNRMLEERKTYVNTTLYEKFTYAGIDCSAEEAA
Vascular endothelial growth factor receptor 2, sequence (P35968 whole entry): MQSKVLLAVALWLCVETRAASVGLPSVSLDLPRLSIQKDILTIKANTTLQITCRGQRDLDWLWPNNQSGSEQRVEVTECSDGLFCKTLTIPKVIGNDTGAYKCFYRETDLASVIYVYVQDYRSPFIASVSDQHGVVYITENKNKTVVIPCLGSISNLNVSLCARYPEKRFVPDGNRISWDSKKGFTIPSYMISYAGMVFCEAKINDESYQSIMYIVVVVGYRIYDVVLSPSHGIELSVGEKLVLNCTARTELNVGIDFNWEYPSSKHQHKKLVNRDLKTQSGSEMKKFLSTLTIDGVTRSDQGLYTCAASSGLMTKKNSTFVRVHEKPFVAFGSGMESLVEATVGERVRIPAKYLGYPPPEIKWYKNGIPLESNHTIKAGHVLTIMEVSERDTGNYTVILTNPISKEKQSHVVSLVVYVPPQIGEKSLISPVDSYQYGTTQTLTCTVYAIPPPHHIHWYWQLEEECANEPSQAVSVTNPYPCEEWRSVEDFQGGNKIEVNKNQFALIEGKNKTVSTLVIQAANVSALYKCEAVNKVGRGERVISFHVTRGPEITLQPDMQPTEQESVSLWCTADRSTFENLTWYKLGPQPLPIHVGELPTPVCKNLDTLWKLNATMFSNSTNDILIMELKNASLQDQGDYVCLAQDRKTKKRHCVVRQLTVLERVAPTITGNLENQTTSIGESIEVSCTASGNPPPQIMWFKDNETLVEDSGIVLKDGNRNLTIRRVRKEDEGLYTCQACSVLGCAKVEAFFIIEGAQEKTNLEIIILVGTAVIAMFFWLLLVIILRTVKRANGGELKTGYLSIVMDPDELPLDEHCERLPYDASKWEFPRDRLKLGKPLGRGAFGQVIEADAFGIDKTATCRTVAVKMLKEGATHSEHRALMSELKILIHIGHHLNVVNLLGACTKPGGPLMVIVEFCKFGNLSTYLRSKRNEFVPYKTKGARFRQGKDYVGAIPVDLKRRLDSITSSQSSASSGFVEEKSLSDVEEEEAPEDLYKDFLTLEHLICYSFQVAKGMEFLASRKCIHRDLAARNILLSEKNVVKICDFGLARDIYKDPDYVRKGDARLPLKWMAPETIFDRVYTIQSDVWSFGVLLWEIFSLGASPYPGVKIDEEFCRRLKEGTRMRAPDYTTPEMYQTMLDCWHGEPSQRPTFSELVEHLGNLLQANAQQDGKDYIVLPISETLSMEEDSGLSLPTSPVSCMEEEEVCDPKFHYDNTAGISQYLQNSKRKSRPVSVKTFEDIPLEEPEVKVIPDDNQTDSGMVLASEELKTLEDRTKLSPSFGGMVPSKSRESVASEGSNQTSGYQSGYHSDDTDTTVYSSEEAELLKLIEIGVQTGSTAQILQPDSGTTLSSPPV

Compound	IC50 (Blood [1])	IC50 (Blood [2])	fraction unbound [3]	fraction unbound [4]	clearance [5]	Vd [6]	half-life [7]	AUC(0-inf) [8]	Cmax [9]	Tmax [10]	bioavailability [11]	IC50 (Angiopoietin-1 receptor)	IC50 [12]	IC50 [13]	IC50 [14]	IC50 (Lymphocyte)	IC50 [15]	ED50 (Mus musculus)
Cc1ccc(NC(=O)c2cccc(C(F)(F)F)c2)c(C)c1C(=O)Nc1cnc(Nc2ccc(N3CCN(C)CC3)cc2)nc1												> 25000 nM	2540 nM	103 nM	> 25000 nM	836 nM	6 nM	
Cc1ccc(NC(=O)c2cccc(C(F)(F)F)c2)cc1C(=O)Nc1cnc(NCCN2CCOCC2)nc1												> 25000 nM	> 8300 nM	6 nM	> 25000 nM	202 nM		
Cc1ccc(NC(=O)c2cccc(C(F)(F)F)c2)cc1C(=O)Nc1cnc(N)nc1	1270 nM	> 10000 nM										> 25000 nM	125 nM		> 25000 nM	107 nM		
Cc1ccc(NC(=O)c2cccc(C(F)(F)F)c2)cc1C(=O)Nc1cncnc1												> 25000 nM	> 8300 nM	199 nM	> 25000 nM			
Cc1ccc(NC(=O)Nc2cccc(C(F)(F)F)c2)cc1C(=O)Nc1cnc(N)nc1												> 25000 nM	587 nM		> 25000 nM	158 nM	63 nM	
Cc1ccc(C(=O)Nc2cccc(C(F)(F)F)c2)cc1C(=O)Nc1cnc(N)nc1												> 5000 nM	205 nM	87 nM	> 25000 nM		15 nM	
Cc1ccc(NC(=O)c2cnoc2C)cc1C(=O)Nc1cnc(Nc2ccc(N3CCN(C)CC3)cc2)nc1												> 25000 nM	3780 nM	179 nM	> 25000 nM	3920 nM	14 nM	
COc1cc(OC)cc(C(=O)Nc2ccc(C)c(C(=O)Nc3cnc(Nc4ccc(N5CCN(C)CC5)cc4)nc3)c2)c1	43 nM		0.012	0.017	4.83 mL/min/kg	0.79 L/kg	2.5 h	528 ng·h/mL	191 ng/mL	0.33 h	8%	> 8300 nM	120 nM	4 nM	> 25000 nM	77 nM	1.4 nM	
Cc1ccc(NC(=O)c2cccc(C(F)(F)F)c2)cc1C(=O)Nc1cnc(NC2CCN(C)CC2)nc1												> 25000 nM	> 25000 nM	5 nM	> 25000 nM		1310 nM	
Cc1ccc(NC(=O)c2cccc(C(F)(F)F)c2)cc1-c1ccc2nc(N)ncc2c1												21 nM	6 nM	1 nM	156 nM	43 nM	0.4 nM	
Cc1ccc(NC(=O)Nc2cccc(C(F)(F)F)c2)cc1C(=O)Nc1cnc(Nc2ccc(N3CCN(C)CC3)cc2)nc1												> 8300 nM	41 nM	2 nM	> 25000 nM	87 nM	0.6 nM	
Cc1ccc(NC(=O)c2cccc(C(F)(F)F)c2)cc1C(=O)Nc1cnc(NCCCN2CCOCC2)nc1												> 25000 nM	> 8300 nM	10 nM	> 25000 nM	821 nM	24 nM	
Cc1ccc(NC(=O)Nc2cccc(C(F)(F)F)c2)cc1-c1ccc2nc(N)ncc2c1												93 nM	169 nM	28 nM	3040 nM	205 nM	7 nM	
Cc1ccc(C(=O)Nc2cccc(C(F)(F)F)c2)cc1-c1ccc2nc(N)ncc2c1																9 nM		
CN1CCN(c2ccc(Nc3ncc(NC(=O)c4c(Cl)cccc4Cl)cn3)cc2)CC1												> 25000 nM	> 25000 nM	1070 nM	> 25000 nM	555 nM	10 nM	
CC(=O)Nc1ccc(C)c(C(=O)Nc2cnc(Nc3ccc(N4CCN(C)CC4)cc3)nc2)c1												> 25000 nM	> 5000 nM	63 nM	> 25000 nM		48 nM	
C/C=C/C[C@@H](C)[C@@H](O)[C@H]1C(=O)N[C@@H](CC)C(=O)N(C)CC(=O)N(C)[C@@H](CC(C)C)C(=O)N[C@@H](C(C)C)C(=O)N(C)[C@@H](CC(C)C)C(=O)N[C@@H](C)C(=O)N[C@H](C)C(=O)N(C)[C@@H](CC(C)C)C(=O)N(C)[C@@H](CC(C)C)C(=O)N(C)[C@@H](C(C)C)C(=O)N1C [CYCLOSPORINE]																		10 mg/kg

More lines, main results first:

IC50 (Blood [1])	IC50 (Blood [2])	fraction unbound [3]	fraction unbound [4]	clearance [5]	Vd [6]	half-life [7]	AUC(0-inf) [8]	Cmax [9]	Tmax [10]	bioavailability [11]	IC50 (Angiopoietin-1 receptor)	IC50 [12]	IC50 [13]	IC50 [14]	IC50 (Lymphocyte)	IC50 [15]	Compound	ED50 (Mus musculus)
2 nM	1370 nM	0.016	0.014	48.7 mL/min/kg	5.45 L/kg	1.8 h	92 ng·h/mL	28 ng/mL	2.75 h	7%	> 8300 nM	54 nM	12 nM	> 25000 nM	60 nM		Cc1ccc(NC(=O)c2cccc(C(F)(F)F)c2C)cc1C(=O)Nc1cnc(Nc2ccc(N3CCN(C)CC3)cc2)nc1	
											123 nM	5 nM	10 nM	438 nM	15 nM		Cc1ccc(C(=O)Nc2cccc(C(F)(F)F)c2)cc1C(=O)Nc1cnc(Nc2ccc(N3CCN(C)CC3)cc2)nc1	
13 nM		0.019	0.011	22.8 mL/min/kg	3.76 L/kg	2.5 h	58 ng·h/mL	16 ng/mL	0.42 h	4%	> 8300 nM	272 nM	10 nM	> 25000 nM	58 nM	1.3 nM	Cc1ccc(NC(=O)c2ccc3c(c2)OC(F)(F)O3)cc1C(=O)Nc1cnc(Nc2ccc(N3CCN(C)CC3)cc2)nc1	
16 nM	1010 nM	0.018	0.023	8.17 mL/min/kg	1.61 L/kg	3.8 h	332 ng·h/mL	39 ng/mL	0.6 h	8%	6080 nM	17 nM	3 nM	> 25000 nM	21 nM	0.3 nM	Cc1ccc(NC(=O)c2cc(F)cc(C(F)(F)F)c2)cc1C(=O)Nc1cnc(Nc2ccc(N3CCN(C)CC3)cc2)nc1	
				111 mL/min/kg	15.8 L/kg	2.9 h					> 8300 nM	32 nM	22 nM	> 25000 nM	10 nM	1.5 nM	Cc1ccc(NC(=O)c2ccc(C(C)(C)C)cc2)cc1C(=O)Nc1cnc(Nc2ccc(N3CCN(C)CC3)cc2)nc1	
											> 5000 nM	13 nM	6 nM	> 5000 nM	29 nM	1.8 nM	CN1CCN(c2ccc(Nc3ncc(NC(=O)c4cc(NC(=O)c5ccc6c(c5)OC(F)(F)O6)ccc4Cl)cn3)cc2)CC1	
											> 25000 nM	> 5000 nM	233 nM	> 25000 nM	928 nM	6 nM	CCc1ccc(NC(=O)c2ccc3c(c2)OC(F)(F)O3)cc1C(=O)Nc1cnc(Nc2ccc(N3CCN(C)CC3)cc2)nc1	
											> 25000 nM	1120 nM	8 nM	> 25000 nM	399 nM	5 nM	COc1ccccc1C(=O)Nc1ccc(C)c(C(=O)Nc2cnc(Nc3ccc(N4CCN(C)CC4)cc3)nc2)c1	
											> 25000 nM	947 nM	0.9 nM	> 25000 nM	187 nM	5 nM	Cc1ccc(NC(=O)c2ccccc2)cc1C(=O)Nc1cnc(Nc2ccc(N3CCN(C)CC3)cc2)nc1	
